Reference: patent US11597724B2, “Herbicidally active 3-phenylisoxazoline-5-carboxamides of tetrahydro and dihydrofuran carboxylic acids and esters” (Bayer Aktiengesellschaft, priority 2017, dated 2023)

Key:
Format in all cases: in vivo
Alopecurus myosuroides [1] = experiment: Post-emergence herbicidal activity against ALOMY; conditions: Alopecurus myosuroides, 504 h, dosage 320 g/ha, rated about 3 weeks after treatment
How it was run: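 Greenhouse-grown plants treated at one-leaf stage, 2 to 3 weeks after sowing, with WP or EC formulations sprayed as aqueous suspension/emulsion plus 0.5% additive at 600 l/ha. Activity rated visually about 3 weeks later versus untreated controls (100% = plants dead, 0% = like control).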

Veronica persica = experiment: Post-emergence herbicidal activity against VERPE; conditions: Veronica persica, 504 h, dosage 320 g/ha
How it was run: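 Greenhouse plants treated at one-leaf stage, 2–3 weeks after sowing, by spraying WP or EC formulations with 0.5% additive at 600 l/ha water. Visual rating about 3 weeks later versus untreated controls (100% = plants dead, 0% = like controls).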

Avena fatua [2] = experiment: Post-emergence herbicidal activity against AVEFA; conditions: Avena fatua, 504 h, dosage 320 g/ha, rated about 3 weeks after treatment
How it was run: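 Greenhouse pots of sandy loam; plants sprayed at one-leaf stage, 2 to 3 weeks after sowing, with WP or EC formulations in water plus 0.5% additive at 600 l/ha. Activity rated visually after about 3 weeks against untreated controls (100% = plants dead, 0% = like control).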

Alopecurus myosuroides [3] = experiment: Pre-emergence herbicidal activity against ALOMY; conditions: Alopecurus myosuroides, 504 h, dosage 80 g/ha, scored visually after about 3 weeks vs untreated controls (100% = plants have died, 0% = like control plants)
Excerpt: (§1) 1. Pre-Emergence Herbicidal Action and Crop Plant Compatibility Seeds of monocotyledonous and dicotyledonous weed plants and crop plants are placed in plastic or wood fiber pots and covered with soil. The compounds of the invention, formulated in the form of wettable powders (WP) or as emulsion concentrates (EC), are then applied onto the surface of the covering soil as aqueous suspension or emulsion with addition of 0.5% additive at a water application rate of 600 l/ha (converted). After the treatment, the pots are placed in a greenhouse and kept under good growth conditions for the trial plants. After about 3 weeks, the effect of the preparations is scored visually in comparison with untreated controls as percentages. For example, 100% activity=the plants have died, 0% activity=like control plants. ABUTH: Abutilon theophrasti ALOMY: Alopecurus myosuroides

Amaranthus retroflexus = experiment: Post-emergence herbicidal activity against AMARE; conditions: Amaranthus retroflexus, 504 h, dosage 320 g/ha, rated about 3 weeks after treatment
Method: AMARE: Amaranthus retroflexus AVEFA: Avena fatua 2. Post-Emergence Herbicidal Action and Crop Plant Compatibility Seeds of monocotyledonous and dicotyledonous weeds and crop plants are placed in sandy loam in plastic or wood-fiber pots, covered with soil and cultivated in a greenhouse under controlled growth conditions. 2 to 3 weeks after sowing, the test plants are treated at the one-leaf stage. The compounds of the invention, formulated in the form of wettable powders (WP) or as emulsion concentrates (EC), are then sprayed onto the green parts of the plants as aqueous suspension or emulsion with addition of 0.5% additive at a water application rate of 600 l/ha (converted). After the test plants had been kept in the greenhouse under optimum growth conditions for about 3 weeks, the activity of the preparations is rated visually in comparison to untreated controls. For example, 100% activity=the plants have died, 0% activity=like control plants.

Avena fatua [4] = experiment: Pre-emergence herbicidal activity against AVEFA; conditions: Avena fatua, 504 h, dosage 80 g/ha, read-out: Pre-emergence herbicidal activity against AVEVA in % (AVEFA)
Excerpt: as §1, with “AMARE: Amaranthus retroflexus AVEFA: Avena fatua” for “ABUTH: Abutilon theophrasti ALOMY: Alopecurus myosuroides”

Polygonum convolvulus = experiment: Pre-emergence herbicidal activity against POLCO; conditions: Fallopia convolvulus, 504 h, dosage 80 g/ha
Excerpt: as §1, with “POLCO: Polygonum convolvulus SETVI: Setaria viridis” for “ABUTH: Abutilon theophrasti ALOMY: Alopecurus myosuroides”

Hordeum murinum = experiment: Post-emergence herbicidal activity against HORMU; conditions: Hordeum murinum, 504 h, dosage 320 g/ha
How it was run: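 Greenhouse pot plants sprayed post-emergence at one-leaf stage (2-3 weeks after sowing) with WP or EC formulations, 0.5% additive, 600 l/ha water. Visual rating about 3 weeks later versus untreated controls: 100% = plants dead, 0% = like control.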

Row | SMILES | pest or weed control at 320 g/ha (Alopecurus myosuroides [1]) | pest or weed control at 320 g/ha (Veronica persica) | pest or weed control at 320 g/ha (Avena fatua [2]) | pest or weed control at 80 g/ha (Alopecurus myosuroides [3]) | pest or weed control at 320 g/ha (Amaranthus retroflexus) | pest or weed control at 80 g/ha (Avena fatua [4]) | pest or weed control at 80 g/ha (Polygonum convolvulus) | pest or weed control at 320 g/ha (Hordeum murinum)
1 | COC(=O)[C@H]1C[C@@H](NC(=O)C2(OC)CC(c3ccccc3)=NO2)CO1 (relative stereo) [I-14, methyl cis-4-[(5-methoxy-3-phenyl-4H-isoxazole-5-carbonyl)amino]tetrahydrofuran-2-carboxylate] | 100% | 80% | 100% |  |  |  |  | 
2 | COC(=O)[C@H]1C[C@@H](NC(=O)C2(C)CC(c3cc(F)cc(F)c3)=NO2)CO1 (relative stereo) [I-01, methyl cis-4-[[3-(3,5-difluorophenyl)-5-methyl-4H-isoxazole-5-carbonyl]amino]tetrahydrofuran-2-carboxylate] | 100% | 80% | 100% | 100% | 80% | 90% | 80% | 
3 | C=CC1(C(=O)N[C@H]2CO[C@@H](C(=O)OC)C2)CC(c2cc(Cl)cc(Cl)c2)=NO1 (relative stereo) [I-03, methyl cis-4-[[3-(3,5-dichlorophenyl)-5-vinyl-4H-isoxazole-5-carbonyl]amino]tetrahydrofuran-2-carboxylate] | 90% | 80% | 80% |  |  |  | 80% | 
4 | COC(=O)C1COCC1NC(=O)[C@@]1(C)CC(c2cc(F)cc(F)c2)=NO1 (stereo partly drawn) [I-28, methyl 4-[[(5R)-3-(3,5-difluorophenyl)-5-methyl-4H-isoxazole-5-carbonyl]amino]tetrahydrofuran-3-carboxylate] | 90% | 90% | 100% | 100% | 80% | 100% |  | 
5 | COC(=O)[C@H]1C[C@@H](NC(=O)C2(C(F)(F)F)CC(c3cc(F)cc(F)c3)=NO2)CO1 (relative stereo) [I-06, methyl cis-4-[[3-(3,5-difluorophenyl)-5-(trifluoromethyl)-4H-isoxazole-5-carbonyl]amino]tetrahydrofuran-2-carboxylate] | 90% | 80% | 90% | 80% | 80% | 90% | 100% | 
6 | COC(=O)[C@@]1(OC)C[C@@H](NC(=O)C2(C)CC(c3cccc(F)c3)=NO2)CO1 (stereo partly drawn) [I-47, methyl (2R,4R)-4-[[3-(3-fluorophenyl)-5-methyl-4H-isoxazole-5-carbonyl]amino]-2-methoxytetrahydrofuran-2-carboxylate] | 100% | 80% | 100% |  |  |  | 90% | 100%
7 | COC(=O)[C@H]1C[C@H](NC(=O)[C@@]2(C)CC(c3cc(F)cc(F)c3)=NO2)CO1 (mixture of isomers) [I-55, methyl trans-4-[[(5R)-3-(3,5-difluorophenyl)-5-methyl-4H-isoxazole-5-carbonyl]amino]tetrahydrofuran-2-carboxylate] | 90% | 90% | 90% |  | 80% |  |  | 100%
8 | C=C[C@]1(C(=O)N[C@@H]2CO[C@@H](C(=O)OC)C2)CC(c2cc(F)cc(F)c2)=NO1 (mixture of isomers) [I-56, methyl trans-4-[[(5S)-3-(3,5-difluorophenyl)-5-vinyl-4H-isoxazole-5-carbonyl]amino]tetrahydrofuran-2-carboxylate] | 90% | 90% | 100% |  | 90% |  |  | 90%
9 | COC(=O)[C@H]1C[C@@H](NC(=O)C2(C)CC(c3cc(C)cc(Br)c3)=NO2)CO1 (relative stereo) [I-04, methyl cis-4-[[3-(3-bromo-5-methylphenyl)-5-methyl-4H-isoxazole-5-carbonyl]amino]tetrahydrofuran-2-carboxylate] | 90% | 80% | 100% |  |  |  | 90% | 
10 | COC(=O)C1=C[C@H](NC(=O)C2(C)CC(c3cccc(F)c3)=NO2)CO1 (stereo partly drawn) [I-39, methyl (3S)-3-[[3-(3-fluorophenyl)-5-methyl-4H-isoxazole-5-carbonyl]amino]-2,3-dihydrofuran-5-carboxylate] | 100% | 80% | 100% |  | 80% |  | 80% | 100%
11 | COC(=O)C1COCC1NC(=O)C1(OC)CC(c2cc(F)cc(F)c2)=NO1 (centres unmarked) [I-27, methyl 4-[[3-(3,5-difluorophenyl)-5-methoxy-4H-isoxazole-5-carbonyl]amino]tetrahydrofuran-3-carboxylate] | 90% | 80% | 90% | 90% |  | 90% | 80% | 
12 | COC(=O)C1COCC1NC(=O)C1(OC)CC(c2cc(Cl)cc(Cl)c2)=NO1 (centres unmarked) [I-29, methyl 4-[[3-(3,5-dichlorophenyl)-5-methoxy-4H-isoxazole-5-carbonyl]amino]tetrahydrofuran-3-carboxylate] | 90% | 90% | 90% | 90% |  | 80% | 100% | 
13 | C=CC1(C(=O)N[C@H]2CO[C@@H](C(=O)OC)C2)CC(c2cccc(F)c2)=NO1 (relative stereo) [I-07, methyl cis-4-[[3-(3-fluorophenyl)-5-vinyl-4H-isoxazole-5-carbonyl]amino]tetrahydrofuran-2-carboxylate] | 90% | 80% | 90% |  |  |  | 80% | 
14 | COC(=O)[C@H]1C[C@@H](NC(=O)C2(OC)CC(c3cc(C)cc(Br)c3)=NO2)CO1 (relative stereo) [I-08, methyl cis-4-[[3-(3-bromo-5-methylphenyl)-5-methoxy-4H-isoxazole-5-carbonyl]amino]tetrahydrofuran-2-carboxylate] |  | 80% | 100% |  |  |  | 80% | 
